# From PubChem BioAssay (NCI)
#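 Briefly, cells in 96-well plates were exposed to five compound concentrations for 48 h, and endpoints were estimated by linear interpolation. TGI marks complete inhibition of growth.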
# Experiments:
# Test in all cases: inhibition of tumour cell growth, NCI panel, 48 h
# [1] = test system: CCRF-CEM leukemia
# [2] = test system: HCT-116 colon
# [3] = test system: HCT-15 colon
# [4] = test system: HL-60(TB) leukemia
# [5] = test system: HS 578T breast
# [6] = test system: MDA-N
# [7] = test system: NCI-H460 lung
# [8] = test system: NCI/ADR-RES ovarian
# [9] = test system: SF-268 CNS
# [10] = test system: SR leukemia
SMILES,TGI [1] [µM],TGI [2] [µM],TGI [3] [µM],TGI [4] [µM],TGI [5] [µM],TGI [6] [µM],TGI [7] [µM],TGI [8] [µM],TGI [9] [µM],TGI [10] [µM]
CCOC(=O)CCC(C(=O)OCC)n1nc2ccc(Nc3c(C)[n+]([O-])c4cc(F)c(OCC)cc4[n+]3[O-])cc2n1 (stereo not given),> 100,> 100,> 100,> 100,90.7,> 100,> 100,> 100,37.6,> 100
C=C1C(=O)O[C@@H]2/C=C(\C)CC/C=C(\C)CC[C@@]12O,0.607,6.69,9.27,3.02,22.7,6.42,31.5,41.6,13.8,10.8
CNC1Cc2c[nH]c3cccc(c23)C12C=C(C)C(=O)O2 (stereo not given),> 100,> 100,> 100,> 100,> 100,> 100,> 100,> 100,> 100,> 100
CCN1c2cc(Br)cc3[nH]c(=O)n(c23)CCC1C (stereo not given),> 100,28.3,35.5,35.8,28.9,19.2,35.9,23,46.1,65.9
Cc1c(/C=N/NC(=S)Nc2ccc(Cl)cc2)c(=O)n(-c2ccccc2)n1C,> 100,> 62.5,> 100,> 100,50.8,> 100,> 61,48.9,39,> 100
Clc1cc(Cl)c2cc3cccc[n+]3cc2c1Cl,37.2,> 100,36.1,29.7,38.7,32.8,32.2,33.2,26.5,32.9
COc1cc(/C=C2\N=C(c3ccccc3)N(c3ccc(C(=O)c4ccccc4)cc3N3C(=O)/C(=C/c4ccc(O)c(OC)c4)N=C3c3ccccc3)C2=O)ccc1O,> 100,23.2,40.3,16,46.6,40,20.2,89.5,74,33.9
CN(Cc1cn(O)c2nc(=N)nc(N)c-2n1)c1ccc(C(=O)NC23CC4CC(CC(C4)C2)C3)cc1,> 100,> 100,> 100,> 100,40.4,> 100,> 100,> 100,81.4,> 100
NC(CCOCCP(=O)(O)CCC1C=CC=CC1)C(=O)O (stereo not given),> 100,> 100,> 100,> 100,> 100,> 100,> 100,> 100,> 100,> 100
